Values quoted from earlier work in patent US20030232417A1, “Process” (priority 2001, published 2003).

System: fungi
Conditions: limited number of fungi tested

O=C1C=CCOC1(O)CO (stereo not shown) [microthecin, 2-hydroxy-2-(hydroxymethyl)-2H-pyran-3(6H)-one]
antifungal activity: antifungal against a limited number of fungi tested
